Data reported in ChEMBL document CHEMBL5335827, “Divergent Biosynthesis of Bridged Polycyclic Sesquiterpenoids by a Minimal Fungal Biosynthetic Gene Cluster” (J Nat Prod, 2024).
Calls of active or inactive are those of the source. The calls are words filed in the database; no cut-off is given here.

What was measured:
Format in all cases: functional, cell-based
HepG2 = test: Cytotoxicity against human HepG2 cells at 20 uM by CCK8 assay
LoVo = test: Cytotoxicity against human LoVo cells at 20 uM by CCK8 assay
RAW264.7 = test: Anti-inflammatory activity against mouse RAW264.7 cells assessed as inhibition of LPS-induced NO release by Griess assay

IC50 (RAW264.7) [µM]	Compound	Activity (HepG2)	Activity (LoVo)
	C=C1CC2[C@@H](C(C)C)CC[C@]1(C)[C@H]2C(O)CO (stereo partly specified)	inactive	inactive
	C=C1[C@H](CO)C2[C@@H]([C@H](C)CO)CC[C@]1(C)[C@H]2CO	inactive	inactive
	C=C1C2C3[C@@H](C[C@@H]2O)[C@]1(C)CCC[C@@]3(C)CO	inactive	inactive
	C=C1[C@H]([C@@H]2C[C@H](O)C(=O)O2)[C@H]2[C@@H](C(C)C)CC[C@]1(C)[C@H]2CO	inactive	inactive
	C=C1C2C3[C@@H](C[C@@H]2O)[C@]1(C)[C@H](O)CCC3(C)C	inactive	inactive
	C=C1[C@@H]2OC[C@H]3[C@@H]([C@H]2O)[C@@H](C(C)C)CC[C@@]13C	inactive	inactive
	CC(C)[C@H]1CC[C@]2(CO)C(C)[C@@H]3C(O)C(O)[C@H]2C13 (mixture of isomers)	inactive	inactive
	C=C1C2C(=O)C[C@@H]3C2C(C)(C)CC[C@H](O)[C@]13C	inactive	inactive
	CC(C)[C@H]1CC[C@]2(C)[C@H]3CO[C@]2(CO)C=C[C@@H]13	inactive	inactive
	C=C1[C@@H]2C(O)C(O)[C@H]3[C@@H]2[C@@H](C(C)C)CC[C@@]13CO (stereo partly specified)	inactive	inactive
3.9	CC(=O)/C=C/[C@H]1[C@H]2C(C=O)=C(C)[C@]1(C)CC[C@@H]2C(C)C	inactive	inactive
	C=C1C2C(=O)C[C@@H]3C2C(C)(C)CCC[C@]13CO	inactive	inactive
	CC1(C)CCC[C@]2(C)C(CO)=CC1[C@H]2CCO	inactive	inactive
	C=C1C2C3[C@@H](C[C@@H]2O)[C@]1(C)CC[C@H](O)C3(C)C	inactive	inactive
	C=C1C2C3[C@@H](C[C@@H]2O)[C@]1(C)C(=O)CCC3(C)C	inactive	inactive
